# Results reported in patent US20060069132A1, “Azolecarboxamide herbicides” (priority 2004, published 2006).
# Columns and labels:
# barnyardgrass [1] = experiment: Test B pre-/postemergence herbicide test; assay type: in vivo, Echinochloa crus-galli; settings: for Barnyardgrass plant response rating: postemergence
# Summary of the method: (§1)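 Plants compared with untreated controls 13–15 days post-treatment and given a visual 0–100 injury score. Applications: preemergence to seeds; postemergence at 1- to 4-leaf (2–18 cm); paddy species flooded, 2-leaf stage. Vehicle non-phytotoxic, surfactant included.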
# Surinam grass = experiment: Test B pre-/postemergence herbicide test; assay type: in vivo, Urochloa decumbens; settings: for Surinam Grass plant response rating: scale 0 (no effect) to 100 (complete control)
# Summary of the method: (§2)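 Test chemicals in a non-phytotoxic solvent mixture with surfactant were applied preemergence to seeded species and postemergence to plants 2-18 cm tall (1- to 4-leaf stage); rice and barnyardgrass were also tested in a flooded paddy at the 2-leaf stage. Visual rating versus controls after 13-15 days in greenhouse, scale 0 (no effect) to 100 (complete control).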
# cocklebur = experiment: Test B pre-/postemergence herbicide test; assay type: in vivo, Xanthium strumarium; settings: for Cocklebur plant response rating: postemergence
# Summary of the method: as §1
# corn = experiment: Test B pre-/postemergence herbicide test; assay type: in vivo, Zea mays; settings: for Corn plant response rating: postemergence
# Summary of the method: as §2
# large crabgrass = experiment: Test B pre-/postemergence herbicide test; assay type: in vivo, Digitaria sanguinalis; settings: for Crabgrass, Large plant response rating: postemergence
# Summary of the method: as §2
# giant foxtail = experiment: Test B pre-/postemergence herbicide test; assay type: in vivo, Setaria faberi; settings: for Foxtail, Giant plant response rating: postemergence
# Summary of the method: as §2
# lambsquarters = experiment: Test B pre-/postemergence herbicide test; assay type: in vivo, Chenopodium album; settings: for Lambsquarters plant response rating: scale 0 (no effect) to 100 (complete control)
# Summary of the method: as §2
# morningglory = experiment: Test B pre-/postemergence herbicide test; assay type: in vivo, Ipomoea coccinea; settings: for Morningglory plant response rating: scale 0 (no effect) to 100 (complete control)
# Summary of the method: as §1
# pigweed = experiment: Test B pre-/postemergence herbicide test; assay type: in vivo, Amaranthus retroflexus; settings: for Pigweed plant response rating: scale 0 (no effect) to 100 (complete control)
# Summary of the method: as §2
# velvetleaf = experiment: Test B pre-/postemergence herbicide test; assay type: in vivo, Abutilon theophrasti; settings: for Velvetleaf plant response rating: scale 0 (no effect) to 100 (complete control)
# Summary of the method: as §2
# blackgrass = experiment: Test B postemergence herbicide test; assay type: in vivo, Alopecurus myosuroides; settings: postemergence
# Summary of the method: (§3)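 Formulated test chemicals went onto postemergence plants measuring 2 to 18 cm, at one to four leaves. For the paddy assay, species had reached two leaves. Scoring took place 13–15 days later by eye, relative to untreated plants, using 0 for no effect up to 100 for full control.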
# wheat = experiment: Test B postemergence herbicide test; assay type: in vivo, Triticum aestivum; parameters: key to Wheat plant response rating: 0 = no effect, 100 = complete control
# Summary of the method: as §3
# wild oat = experiment: Test B postemergence herbicide test; assay type: in vivo, Avena fatua; settings: scale 0 (no effect) to 100 (complete control)
# Summary of the method: as §3
# rice [2] = experiment: Test B flooded paddy test; assay type: in vivo, Oryza sativa; settings: 1000 g ai/ha, scale 0 to 100 (0 no effect, 100 complete control)
# Summary of the method: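 Paddy species grown to the 2-leaf stage under flooding; blackgrass sprayed postemergence at 2–18 cm (1- to 4-leaf stage). Plants kept in a greenhouse for 13 to 15 days, then visually rated against controls on 0 (no effect) to 100 (complete control).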
# [3] = test system: small flower umbrella sedge; experiment: Test B flooded paddy test; assay type: in vivo, Cyperus difformis; settings: 1000 g ai/ha, scale 0 to 100 (0 no effect, 100 complete control)
# Summary of the method: as §3
# ducksalad [4] = experiment: Test B flooded paddy test; assay type: in vivo, Heteranthera limosa; settings: 1000 g ai/ha, scale 0 to 100 (0 no effect, 100 complete control)
# Summary of the method: as §3
# barnyardgrass [5] = experiment: Test B flooded paddy test; assay type: in vivo, Echinochloa crus-galli; settings: 1000 g ai/ha, scale 0 to 100 (0 no effect, 100 complete control)
# Summary of the method: as §3
# rice [6] = experiment: Test C flooded paddy test; assay type: in vivo, Oryza sativa
# Summary of the method: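 Injury scored visually against controls on a 0 (no effect) to 100 (complete control) scale, 12 to 14 days after treatment in greenhouse. Flooded paddy plants treated at 2-leaf stage; postemergence plants at 1- to 4-leaf stage, 2 to 18 cm tall.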
# [7] = test system: smallflower umbrella sedge; experiment: Test C flooded paddy test; assay type: in vivo, Cyperus difformis
# ducksalad [8] = experiment: Test C flooded paddy test; assay type: in vivo, Heteranthera limosa
# barnyardgrass [9] = experiment: Test C flooded paddy test; assay type: in vivo, Echinochloa crus-galli
# Summary of the method: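 Greenhouse test with a 12–14 day hold after application and visual comparison with controls. Emerged plants were 1- to 4-leaf stage (2–18 cm) when sprayed postemergence, and the paddy barnyardgrass was at 2 leaves under flooded conditions. 100 = complete control.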
# [10] = 125 g ai/ha, 0 is no effect, 100 is complete control, preemergence
# [11] = 125 g ai/ha, visual rating, scale 0 (no effect) to 100 (complete control)
# [12] = 500 g ai/ha, scale 0 to 100, 0 is no effect, 100 is complete control
# [13] = 125 g ai/ha, visual rating, postemergence
# [14] = 125 g ai/ha, scale 0 to 100 (0 no effect, 100 complete control)
# [15] = 250 g ai/ha, scale of 0 to 100, 0 is no effect, 100 is complete control
# [16] = 500 g ai/ha, visual rating after 12 to 14 days, scale 0 to 100 (0 no effect, 100 complete control)
smiles,measurement,setting,value
C=CCNC(=O)c1ccc(F)c(NC(=O)c2nn(C(C)(C)C)nc2CC)c1 [Compound 383],"Plant response rating (0 to 100 scale), Barnyardgrass",barnyardgrass [1]; [10],10
same,Barnyardgrass plant response rating,barnyardgrass [1]; [11],0
same,Barnyardgrass plant response rating,barnyardgrass [1]; [12],0
same,"Plant response rating (0 to 100 scale), Surinam Grass",Surinam grass; [10],10
same,Surinam Grass plant response rating,Surinam grass; [13],10
same,Surinam Grass plant response rating,"Surinam grass; Postemergence, 500 g ai/ha",20
same,"Plant response rating (0 to 100 scale), Cocklebur",cocklebur; [10],0
same,Cocklebur plant response rating,cocklebur; [11],0
same,Cocklebur plant response rating,cocklebur; [12],10
same,"Plant response rating (0 to 100 scale), Corn",corn; [10],0
same,Corn plant response rating,corn; [11],0
same,Corn plant response rating,corn; [12],0
same,"Plant response rating (0 to 100 scale), Crabgrass, Large",large crabgrass; [10],50
same,"Crabgrass, Large plant response rating",large crabgrass; [11],0
same,"Crabgrass, Large plant response rating",large crabgrass; [12],10
same,"Plant response rating (0 to 100 scale), Foxtail, Giant",giant foxtail; [10],10
same,"Foxtail, Giant plant response rating",giant foxtail; [11],0
same,"Foxtail, Giant plant response rating",giant foxtail; [12],0
same,"Plant response rating (0 to 100 scale), Lambsquarters",lambsquarters; [10],40
same,Lambsquarters plant response rating,lambsquarters; [13],20
same,Lambsquarters plant response rating,"lambsquarters; Postemergence, 500 g ai/ha",30
same,"Plant response rating (0 to 100 scale), Morningglory",morningglory; [10],0
same,Morningglory plant response rating,morningglory; [13],10
same,Morningglory plant response rating,"morningglory; Postemergence, 500 g ai/ha",10
same,"Plant response rating (0 to 100 scale), Pigweed",pigweed; [10],0
same,Pigweed plant response rating,pigweed; [13],20
same,Pigweed plant response rating,"pigweed; Postemergence, 500 g ai/ha",30
same,"Plant response rating (0 to 100 scale), Velvetleaf",velvetleaf; [10],10
same,Velvetleaf plant response rating,velvetleaf; [13],10
same,Velvetleaf plant response rating,"velvetleaf; Postemergence, 500 g ai/ha",40
same,Blackgrass plant response rating,blackgrass; [11],0
same,Blackgrass plant response rating,blackgrass; [12],20
same,Wheat plant response rating,"wheat; 125 g ai/ha, visual rating, scale 0 (no effect) to 100 (complete control), postemergence",0
same,Wheat plant response rating,"wheat; 500 g ai/ha, scale 0 to 100, 0 no effect, 100 complete control, preemergence",10
same,Wheat plant response rating,"wheat; Postemergence, 500 g ai/ha, scale 0 (no effect) to 100 (complete control)",0
same,"Oat, Wild plant response rating",wild oat; [13],0
same,"Oat, Wild plant response rating","wild oat; Postemergence, 500 g ai/ha",20
same,Rice plant response rating,rice [2],60
same,"Sedge, Umbrella plant response rating",[3],80
same,Ducksalad plant response rating,ducksalad [4],70
same,Barnyardgrass plant response rating,barnyardgrass [5],30
same,Rice plant response rating,"rice [6]; 62 g ai/ha, scale 0 to 100",0
same,Rice plant response rating,rice [6]; [14],5
same,Rice plant response rating,rice [6]; [15],35
same,"Plant response rating, Rice",rice [6]; [16],50
same,"Sedge, Umbrella plant response rating","[7]; 62 g ai/ha, scale 0 to 100",0
same,"Sedge, Umbrella plant response rating",[7]; [14],45
same,"Sedge, Umbrella plant response rating",[7]; [15],65
same,"Plant response rating, Sedge, Umbrella",[7]; [16],90
same,Ducksalad plant response rating,"ducksalad [8]; 62 g ai/ha, scale 0 to 100",0
same,Ducksalad plant response rating,ducksalad [8]; [14],45
same,Ducksalad plant response rating,ducksalad [8]; [15],45
same,"Plant response rating, Ducksalad",ducksalad [8]; [16],95
same,Barnyardgrass plant response rating,"barnyardgrass [9]; 62 g ai/ha, scale 0 to 100 (0 no effect, 100 complete control)",0
same,Barnyardgrass plant response rating,barnyardgrass [9]; [14],0
same,Barnyardgrass plant response rating,barnyardgrass [9]; [15],15
same,"Plant response rating, Barnyardgrass",barnyardgrass [9]; [16],40
